# Measured values as given in the supplement of paper PMC4862054.
# Tested on: DU-4475
# Experiment: normalised viability (% of control), CellTiter-Blue; higher = more viable cells (about 100 = DMSO control)
# Conditions: 10 nM; incubation time: 72 h
# Summary of the method: (§1)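 Breast cancer cell lines in 20 µl suspension were seeded onto 384-well plates pre-loaded with compound dissolved in 5 µl medium, then incubated 72 h. CellTiter-Blue reagent (2.5 µl) was added for 2 h at 37 °C and fluorescence read at 560/590 nm. Each plate was normalised to vehicle (100) and a positive kill control (0), with Z'-factor quality control. The value is normalised viability at one listed concentration of the series.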
row,Compound,normalised viability
1,O=P1(NCCCl)OCCCN1CCCl (centres undefined) [Ifosfamide],110%
2,Cc1ccc(-n2nc(C(C)(C)C)cc2NC(=O)Nc2ccc(OCCN3CCOCC3)c3ccccc23)cc1 [Doramapimod],106%
3,COc1cc([C@@H]2c3cc4c(cc3[C@@H](O[C@@H]3O[C@@H]5CO[C@@H](C)O[C@H]5[C@H](O)[C@H]3O)[C@H]3COC(=O)[C@H]23)OCO4)cc(OC)c1O [Etoposide],115%
4,CN(N=O)C(=O)N[C@@H](C=O)[C@@H](O)[C@H](O)[C@H](O)CO [Streptozocin],99.1%

# Same assay, conditions: 40 nM; incubation time: 72 h
row,Compound,normalised viability
1,N[C@@H](CSC(c1ccccc1)(c1ccccc1)c1ccccc1)C(=O)O [S-trityl-L-cysteine],99.9%

# Tested on: HCC1143
# Experiment: as above
# Conditions: 10 nM; incubation time: 72 h
# Summary of the method: as §1
row,Compound,normalised viability
1,Cn1c(Nc2ccc(C(F)(F)F)cc2)nc2cc(Oc3ccnc(-c4ncc(C(F)(F)F)[nH]4)c3)ccc21 [RAF265],77.8%
2,Cc1ccc(C(=O)N(CCCN)[C@@H](c2oc3cc(Cl)ccc3c(=O)c2Cc2ccccc2)C(C)C)cc1,46.6%

# Same assay, conditions: 100 nM; incubation time: 72 h
row,Compound,normalised viability
1,CNCc1ccc(-c2[nH]c3cc(F)cc4c3c2CCNC4=O)cc1 [Rucaparib],110%
2,C[C@]12CC[C@@H]3c4ccc(O)cc4C[C@@H](CCCCCCCCC[S+]([O-])CCCC(F)(F)C(F)(F)F)[C@H]3[C@@H]1CC[C@@H]2O (some centres undefined) [Fulvestrant],77.8%
3,CN(C)/N=N/c1[nH]cnc1C(N)=O [Dacarbazine],89.2%
4,CC(C)Cn1cnc2c(N)nc3ccccc3c21 [Imiquimod],120%
5,C#Cc1cccc(Nc2ncnc3cc(OCCOC)c(OCCOC)cc23)c1 [Erlotinib],92.9%
6,O=P1(NCCCl)OCCCN1CCCl (centres undefined) [Ifosfamide],83.4%
7,Cc1ccc(-n2nc(C(C)(C)C)cc2NC(=O)Nc2ccc(OCCN3CCOCC3)c3ccccc23)cc1 [Doramapimod],100%
8,COc1cc([C@@H]2c3cc4c(cc3[C@@H](O[C@@H]3O[C@@H]5CO[C@@H](C)O[C@H]5[C@H](O)[C@H]3O)[C@H]3COC(=O)[C@H]23)OCO4)cc(OC)c1O [Etoposide],84%
9,CN(N=O)C(=O)N[C@@H](C=O)[C@@H](O)[C@H](O)[C@H](O)CO [Streptozocin],101%

# Same assay, conditions: 400 nM; incubation time: 72 h
row,Compound,normalised viability
1,N[C@@H](CSC(c1ccccc1)(c1ccccc1)c1ccccc1)C(=O)O [S-trityl-L-cysteine],122%

# Tested on: HCC1599
# Experiment: as above
# Conditions: 10 nM; incubation time: 72 h
# Summary of the method: as §1
row,Compound,normalised viability
1,Cn1c(Nc2ccc(C(F)(F)F)cc2)nc2cc(Oc3ccnc(-c4ncc(C(F)(F)F)[nH]4)c3)ccc21 [RAF265],97.2%
2,Cc1ccc(C(=O)N(CCCN)[C@@H](c2oc3cc(Cl)ccc3c(=O)c2Cc2ccccc2)C(C)C)cc1,80.5%

# Same assay, conditions: 100 nM; incubation time: 72 h
row,Compound,normalised viability
1,CNCc1ccc(-c2[nH]c3cc(F)cc4c3c2CCNC4=O)cc1 [Rucaparib],114%
2,C[C@]12CC[C@@H]3c4ccc(O)cc4C[C@@H](CCCCCCCCC[S+]([O-])CCCC(F)(F)C(F)(F)F)[C@H]3[C@@H]1CC[C@@H]2O (some centres undefined) [Fulvestrant],113%
3,CN(C)/N=N/c1[nH]cnc1C(N)=O [Dacarbazine],78.8%
4,CC(C)Cn1cnc2c(N)nc3ccccc3c21 [Imiquimod],103%
5,C#Cc1cccc(Nc2ncnc3cc(OCCOC)c(OCCOC)cc23)c1 [Erlotinib],78%
6,O=P1(NCCCl)OCCCN1CCCl (centres undefined) [Ifosfamide],108%
7,Cc1ccc(-n2nc(C(C)(C)C)cc2NC(=O)Nc2ccc(OCCN3CCOCC3)c3ccccc23)cc1 [Doramapimod],90.9%
8,COc1cc([C@@H]2c3cc4c(cc3[C@@H](O[C@@H]3O[C@@H]5CO[C@@H](C)O[C@H]5[C@H](O)[C@H]3O)[C@H]3COC(=O)[C@H]23)OCO4)cc(OC)c1O [Etoposide],115%
9,CN(N=O)C(=O)N[C@@H](C=O)[C@@H](O)[C@H](O)[C@H](O)CO [Streptozocin],101%

# Same assay, conditions: 400 nM; incubation time: 72 h
row,Compound,normalised viability
1,N[C@@H](CSC(c1ccccc1)(c1ccccc1)c1ccccc1)C(=O)O [S-trityl-L-cysteine],89.6%

# Tested on: HCC1937
# Experiment: as above
# Conditions: 10 nM; incubation time: 72 h
# Summary of the method: as §1
row,Compound,normalised viability
1,Cn1c(Nc2ccc(C(F)(F)F)cc2)nc2cc(Oc3ccnc(-c4ncc(C(F)(F)F)[nH]4)c3)ccc21 [RAF265],93.2%
2,Cc1ccc(C(=O)N(CCCN)[C@@H](c2oc3cc(Cl)ccc3c(=O)c2Cc2ccccc2)C(C)C)cc1,25.2%

# Same assay, conditions: 100 nM; incubation time: 72 h
row,Compound,normalised viability
1,CNCc1ccc(-c2[nH]c3cc(F)cc4c3c2CCNC4=O)cc1 [Rucaparib],85.9%
2,C[C@]12CC[C@@H]3c4ccc(O)cc4C[C@@H](CCCCCCCCC[S+]([O-])CCCC(F)(F)C(F)(F)F)[C@H]3[C@@H]1CC[C@@H]2O (some centres undefined) [Fulvestrant],91.9%
3,CN(C)/N=N/c1[nH]cnc1C(N)=O [Dacarbazine],106%
4,CC(C)Cn1cnc2c(N)nc3ccccc3c21 [Imiquimod],87.1%
5,C#Cc1cccc(Nc2ncnc3cc(OCCOC)c(OCCOC)cc23)c1 [Erlotinib],106%
6,O=P1(NCCCl)OCCCN1CCCl (centres undefined) [Ifosfamide],107%
7,Cc1ccc(-n2nc(C(C)(C)C)cc2NC(=O)Nc2ccc(OCCN3CCOCC3)c3ccccc23)cc1 [Doramapimod],94.7%
8,COc1cc([C@@H]2c3cc4c(cc3[C@@H](O[C@@H]3O[C@@H]5CO[C@@H](C)O[C@H]5[C@H](O)[C@H]3O)[C@H]3COC(=O)[C@H]23)OCO4)cc(OC)c1O [Etoposide],91.3%
9,CN(N=O)C(=O)N[C@@H](C=O)[C@@H](O)[C@H](O)[C@H](O)CO [Streptozocin],90.7%

# Same assay, conditions: 400 nM; incubation time: 72 h
row,Compound,normalised viability
1,N[C@@H](CSC(c1ccccc1)(c1ccccc1)c1ccccc1)C(=O)O [S-trityl-L-cysteine],81.5%

# Tested on: HDQ-P1
# Experiment: as above
# Conditions: 1 nM; incubation time: 72 h
# Summary of the method: as §1
row,Compound,normalised viability
1,Cn1c(Nc2ccc(C(F)(F)F)cc2)nc2cc(Oc3ccnc(-c4ncc(C(F)(F)F)[nH]4)c3)ccc21 [RAF265],109%
2,Cc1ccc(C(=O)N(CCCN)[C@@H](c2oc3cc(Cl)ccc3c(=O)c2Cc2ccccc2)C(C)C)cc1,105%

# Same assay, conditions: 10 nM; incubation time: 72 h
row,Compound,normalised viability
1,CNCc1ccc(-c2[nH]c3cc(F)cc4c3c2CCNC4=O)cc1 [Rucaparib],109%
